Measurements reported in BigSolDB 2.1.

## CS(=O)(=O)c1ccc([C@@H](O)[C@@H](CO)NC(=O)C(Cl)Cl)cc1
In 1,4-dioxane, 288.15 K
  solubility (mole fraction): 0.000384
In 1,4-dioxane, 293.15 K
  solubility (mole fraction): 0.000508
In 1,4-dioxane, 298.15 K
  solubility (mole fraction): 0.000728
In 1,4-dioxane, 303.15 K
  solubility (mole fraction): 0.000973
In 1,4-dioxane, 308.15 K
  solubility (mole fraction): 0.0013
In 1,4-dioxane, 313.15 K
  solubility (mole fraction): 0.00173
In 1,4-dioxane, 318.15 K
  solubility (mole fraction): 0.00227
In 2-butanone, 278.15 K
  solubility (mole fraction): 0.000139
In 2-butanone, 283.15 K
  solubility (mole fraction): 0.000197
In 2-butanone, 288.15 K
  solubility (mole fraction): 0.000286
In 2-butanone, 293.15 K
  solubility (mole fraction): 0.000379
In 2-butanone, 298.15 K
  solubility (mole fraction): 0.00051
In 2-butanone, 303.15 K
  solubility (mole fraction): 0.000704
In 2-butanone, 308.15 K
  solubility (mole fraction): 0.000952
In 2-butanone, 313.15 K
  solubility (mole fraction): 0.00125
In 2-butanone, 318.15 K
  solubility (mole fraction): 0.00166
In DMF, 278.15 K
  solubility (mole fraction): 0.0092
In DMF, 283.15 K
  solubility (mole fraction): 0.012
In DMF, 288.15 K
  solubility (mole fraction): 0.0156
In DMF, 293.15 K
  solubility (mole fraction): 0.0199
In DMF, 298.15 K
  solubility (mole fraction): 0.025
In DMF, 303.15 K
  solubility (mole fraction): 0.0308
In DMF, 308.15 K
  solubility (mole fraction): 0.0379
In DMF, 313.15 K
  solubility (mole fraction): 0.0457
In DMF, 318.15 K
  solubility (mole fraction): 0.0553
In acetone, 278.15 K
  solubility (mole fraction): 0.000283
In acetone, 283.15 K
  solubility (mole fraction): 0.000425
In acetone, 288.15 K
  solubility (mole fraction): 0.000585
In acetone, 293.15 K
  solubility (mole fraction): 0.00084
In acetone, 298.15 K
  solubility (mole fraction): 0.00112
In acetone, 303.15 K
  solubility (mole fraction): 0.00149
In acetone, 308.15 K
  solubility (mole fraction): 0.00202
In acetone, 313.15 K
  solubility (mole fraction): 0.00268
In acetone, 318.15 K
  solubility (mole fraction): 0.00352
In acetonitrile, 278.15 K
  solubility (mole fraction): 7.96e-05
In acetonitrile, 283.15 K
  solubility (mole fraction): 0.000119
In acetonitrile, 288.15 K
  solubility (mole fraction): 0.000177
In acetonitrile, 293.15 K
  solubility (mole fraction): 0.000259
In acetonitrile, 298.15 K
  solubility (mole fraction): 0.000363
In acetonitrile, 303.15 K
  solubility (mole fraction): 0.000502
In acetonitrile, 308.15 K
  solubility (mole fraction): 0.000716
In acetonitrile, 313.15 K
  solubility (mole fraction): 0.00098
In acetonitrile, 318.15 K
  solubility (mole fraction): 0.00134
In ethanol, 278.15 K
  solubility (mole fraction): 0.000102
In ethanol, 283.15 K
  solubility (mole fraction): 0.000148
In ethanol, 288.15 K
  solubility (mole fraction): 0.000219
In ethanol, 293.15 K
  solubility (mole fraction): 0.000309
In ethanol, 303.15 K
  solubility (mole fraction): 0.000625
In ethanol, 308.15 K
  solubility (mole fraction): 0.000837
In ethanol, 313.15 K
  solubility (mole fraction): 0.00115
In ethanol, 318.15 K
  solubility (mole fraction): 0.00157
In ethyl acetate, 278.15 K
  solubility (mole fraction): 6.24e-05
In ethyl acetate, 283.15 K
  solubility (mole fraction): 9.09e-05
In ethyl acetate, 288.15 K
  solubility (mole fraction): 0.000124
In ethyl acetate, 293.15 K
  solubility (mole fraction): 0.000171
In ethyl acetate, 298.15 K
  solubility (mole fraction): 0.000246
In ethyl acetate, 303.15 K
  solubility (mole fraction): 0.000348
In ethyl acetate, 308.15 K
  solubility (mole fraction): 0.000471
In ethyl acetate, 313.15 K
  solubility (mole fraction): 0.000643
In ethyl acetate, 318.15 K
  solubility (mole fraction): 0.000861
In isopropanol, 278.15 K
  solubility (mole fraction): 3.46e-05
In isopropanol, 283.15 K
  solubility (mole fraction): 5.2e-05
In isopropanol, 288.15 K
  solubility (mole fraction): 7.13e-05
In isopropanol, 293.15 K
  solubility (mole fraction): 0.000104
In isopropanol, 298.15 K
  solubility (mole fraction): 0.000146
In isopropanol, 303.15 K
  solubility (mole fraction): 0.000201
In isopropanol, 308.15 K
  solubility (mole fraction): 0.000269
In isopropanol, 313.15 K
  solubility (mole fraction): 0.000364
In isopropanol, 318.15 K
  solubility (mole fraction): 0.000493
In methanol, 278.15 K
  solubility (mole fraction): 0.00023
In methanol, 283.15 K
  solubility (mole fraction): 0.000345
In methanol, 288.15 K
  solubility (mole fraction): 0.000518
In methanol, 293.15 K
  solubility (mole fraction): 0.000715
In methanol, 298.15 K
  solubility (mole fraction): 0.000993
In methanol, 303.15 K
  solubility (mole fraction): 0.00141
In methanol, 308.15 K
  solubility (mole fraction): 0.00189
In methanol, 313.15 K
  solubility (mole fraction): 0.00259
In methanol, 318.15 K
  solubility (mole fraction): 0.00341
In n-butanol, 278.15 K
  solubility (mole fraction): 9.54e-06
In n-butanol, 283.15 K
  solubility (mole fraction): 1.38e-05
In n-butanol, 288.15 K
  solubility (mole fraction): 2.08e-05
In n-butanol, 293.15 K
  solubility (mole fraction): 3.1e-05
In n-butanol, 298.15 K
  solubility (mole fraction): 4.46e-05
In n-butanol, 303.15 K
  solubility (mole fraction): 6.39e-05
In n-butanol, 308.15 K
  solubility (mole fraction): 8.42e-05
In n-butanol, 313.15 K
  solubility (mole fraction): 0.000123
In n-butanol, 318.15 K
  solubility (mole fraction): 0.000165
In n-propanol, 278.15 K
  solubility (mole fraction): 5.11e-05
In n-propanol, 283.15 K
  solubility (mole fraction): 7.34e-05
In n-propanol, 288.15 K
  solubility (mole fraction): 0.000103
In n-propanol, 293.15 K
  solubility (mole fraction): 0.000147
In n-propanol, 298.15 K
  solubility (mole fraction): 0.000199
In n-propanol, 303.15 K
  solubility (mole fraction): 0.000285
In n-propanol, 308.15 K
  solubility (mole fraction): 0.00038
In n-propanol, 313.15 K
  solubility (mole fraction): 0.000509
In n-propanol, 318.15 K
  solubility (mole fraction): 0.000687
In toluene, 278.15 K
  solubility (mole fraction): 3.96e-06
In toluene, 283.15 K
  solubility (mole fraction): 6.03e-06
In toluene, 288.15 K
  solubility (mole fraction): 8.89e-06
In toluene, 293.15 K
  solubility (mole fraction): 1.28e-05
In toluene, 298.15 K
  solubility (mole fraction): 1.89e-05
In toluene, 303.15 K
  solubility (mole fraction): 2.7e-05
In toluene, 308.15 K
  solubility (mole fraction): 3.81e-05
In toluene, 313.15 K
  solubility (mole fraction): 5.53e-05
In toluene, 318.15 K
  solubility (mole fraction): 7.6e-05
In water, 278.15 K
  solubility (mole fraction): 2.5e-05
In water, 283.15 K
  solubility (mole fraction): 3.42e-05
In water, 288.15 K
  solubility (mole fraction): 4.96e-05
In water, 293.15 K
  solubility (mole fraction): 7.3e-05
In water, 298.15 K
  solubility (mole fraction): 9.52e-05
In water, 303.15 K
  solubility (mole fraction): 0.000132
In water, 308.15 K
  solubility (mole fraction): 0.000187
In water, 313.15 K
  solubility (mole fraction): 0.000253
In water, 318.15 K
  solubility (mole fraction): 0.000339
